Data from PMC10488223 (International Journal of Molecular Sciences, 2023).

Tests used:
mouse BACE-1 = mouse BACE-1 (Mus musculus, UniProt P56818); assay: BACE-1 activity, fluorescent peptide substrate; assay type: biochemical; conditions: mean ± SD, four determinations; pH 4.5
Protocol: BACE-1 activity was assayed as previously reported. Briefly, the reaction mixtures contained 2.1 ng/µL mouse BACE-1 in 50 mM ammonium acetate buffer, pH 4.5 supplemented with 1 mM triton X-100, and the appropriate amount of the hybrid derivatives. The mixture was incubated for 10 min at room temperature and started by adding 100 nM final concentration of the fluorescent peptide substrate. The increase in fluorescence was followed kinetically using excitation and emission wavelengths of 320 and 420 nm, respectively. The rate was derived from the linear portion of the kinetics, usually in the first 30 min of the reaction. The known BACE-1 inhibitors I and IV were used as positive controls.

[1] = target: T1, butirrylcholinesterase from equine serum (BuChE) (Equus caballus, UniProt P81908); assay: biochemical; conditions: for inhibition type determined for BuChE: from Km and Vmax at different inhibitor concentrations; for IC50: mean ± SD, three determinations, pH 7.4, 500 μM butirrylthiocholine
T1 construct: butirrylcholinesterase from equine serum (BuChE); purchased Sigma-Aldrich (Milano, Italy); host or cells: equine serum
T1 sequence (P81908 whole entry): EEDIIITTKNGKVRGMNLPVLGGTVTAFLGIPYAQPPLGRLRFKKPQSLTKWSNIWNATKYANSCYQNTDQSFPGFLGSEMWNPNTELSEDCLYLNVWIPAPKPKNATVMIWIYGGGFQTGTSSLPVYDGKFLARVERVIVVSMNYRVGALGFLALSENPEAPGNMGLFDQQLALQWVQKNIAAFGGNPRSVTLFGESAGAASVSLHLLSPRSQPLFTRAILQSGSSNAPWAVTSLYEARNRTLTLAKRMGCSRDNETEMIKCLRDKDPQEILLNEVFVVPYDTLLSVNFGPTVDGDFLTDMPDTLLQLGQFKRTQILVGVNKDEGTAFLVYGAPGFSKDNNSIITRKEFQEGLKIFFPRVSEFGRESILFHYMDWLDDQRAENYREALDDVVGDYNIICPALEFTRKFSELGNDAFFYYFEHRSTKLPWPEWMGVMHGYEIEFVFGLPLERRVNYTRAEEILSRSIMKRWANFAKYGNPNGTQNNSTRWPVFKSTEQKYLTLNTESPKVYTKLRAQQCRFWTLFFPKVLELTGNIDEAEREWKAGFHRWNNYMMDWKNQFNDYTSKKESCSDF
Protocol: (§1) AChE or BuChE activity was assayed by the Ellman method as previously reported, using acetylthiocholine or butirrylthiocholine as a substrate, respectively. […] The reaction was started by the addition of 100 mU/mL AChE or BuChE, and the initial rate of the reaction was derived from the linear portion of the kinetics. […] Linear curve fits were obtained with the least-squares method, and the significance of the correlation was estimated from the squared correlation coefficient r^2.
(§2) The determination of the kinetic parameters Km and Vmax for both cholinesterase and monoamine oxidase activities were determined by measuring the initial velocity (v0) of substrate consumption/product formed at different substrate concentrations, as reported above. […] The Ki values obtained at different inhibitor concentrations were averaged to obtain a unique value of apparent Ki for each compound. Kinetic parameters and their corresponding standard errors were evaluated using a simple weighting method (Student’s t test).

[2] = target: T2, Acetylcholinesterase from Electrophorus electricus (AChE) (Electrophorus electricus, UniProt O42275); assay: biochemical; conditions: for mechanism of inhibition on AChE: from Km and Vmax at different inhibitor concentrations; for IC50: mean ± SD, three determinations, pH 7.4, 500 μM acetylthiocholine
T2 construct: purchased Sigma-Aldrich (Milano, Italy)
T2 sequence (O42275 24-633): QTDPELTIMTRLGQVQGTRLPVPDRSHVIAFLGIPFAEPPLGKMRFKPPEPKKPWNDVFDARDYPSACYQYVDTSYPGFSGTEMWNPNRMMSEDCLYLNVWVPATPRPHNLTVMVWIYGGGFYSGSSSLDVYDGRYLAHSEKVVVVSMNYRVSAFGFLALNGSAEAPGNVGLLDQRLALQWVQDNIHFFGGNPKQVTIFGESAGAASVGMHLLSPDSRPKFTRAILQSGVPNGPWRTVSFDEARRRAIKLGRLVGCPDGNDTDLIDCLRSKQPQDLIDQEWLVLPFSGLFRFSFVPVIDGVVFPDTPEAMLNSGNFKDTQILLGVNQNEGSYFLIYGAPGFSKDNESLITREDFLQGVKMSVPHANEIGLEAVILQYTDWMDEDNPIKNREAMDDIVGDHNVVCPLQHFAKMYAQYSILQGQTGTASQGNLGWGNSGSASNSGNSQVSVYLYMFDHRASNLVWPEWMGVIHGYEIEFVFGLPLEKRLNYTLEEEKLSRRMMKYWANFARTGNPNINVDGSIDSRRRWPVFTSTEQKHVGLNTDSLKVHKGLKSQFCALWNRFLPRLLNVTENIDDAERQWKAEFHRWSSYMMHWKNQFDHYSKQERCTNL
Protocol: as §1, §2

Aβ 1–40 peptide = target: T3, Aβ 1–40 peptide (Homo sapiens, UniProt P05067); assay: Aβ 1–40 self-aggregation inhibition assay (thioflavine T); assay type: biochemical; conditions: for interference with fibril formation: up to 500 µM; for IC50: 96 µM peptide, 37 °C, 24 h, mean ± SD, three determinations, read-out: IC50 on Aβ 1–40 fibril formation
T3 construct: Human β-amyloid peptide (1–40, cat. ab120479); purchased Abcam (Cambridge, UK) ab120479
T3 sequence (P05067 672-711): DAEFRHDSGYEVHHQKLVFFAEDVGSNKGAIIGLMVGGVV
Protocol: The percent inhibition due to the presence of the self-aggregation inhibition was calculated from the decrease in the fluorescence signal after the subtraction of the background fluorescence of a thioflavin T solution obtained in the same way.

SH-SY5Y cells [3] = assay: Cell viability by MTT assay; assay type: cell-based, Human
Protocol: Human neuroblastoma SH-SY5Y cell line is the most widely used model to reproduce in vitro AD [37]. This cell line was acquired from the American Type Culture Collection (20099 Sesto San Giovanni, Milan, Italy) and maintained in culture in Dulbecco Modified’s Eagle’s Medium (DMEM) (supplemented with 100 U/mL penicillin, 100 µg/mL streptomycin, and 10% thermally inactivated bovine fetal serum). The cells were appropriately differentiated: a treatment with trans retinoid acid 10 µM for 5 days was chosen (Sigma Aldrich, 20151 Milan, Italy). […] At the end of the treatment, all appropriate tests were performed.
The use of 3-(4,5-dimethyl[…])-2,5-diphenyltetrazole (MTT) bromide allowed the determination of cell viability for the presence of active enzymes within mitochondria in living cells. Mitochondrial […] can reduce MTT by producing colorimetric modification whose spectrophotometric measurement provides valuable information on cell viability. An amount of 8 × 10^3 cells/well was plated onto 96-well plates. After 24 h, the culture medium was replaced with fresh phenol-free medium containing a solution of MTT (0.5 mg/mL), and after 4 h of incubation, 100 μL 10% SDS was added to each well to solubilize the formazan crystals. The optical density was measured at wavelengths of 540 and 690 nm using a spectrophotometric reader (X MARK Spectrophotometer Microplate Bio-Rad).
Aβ 25 μM peptide was incubated alone or in the presence the specific amount of each hybrid compound [28] for 24 h at room temperature prior to the cell treatment. […]

SH-SY5Y cells [4] = assay: Malondialdehyde (MDA), TBA reaction; assay type: cell-based, Human; conditions: Aβ peptide
Protocol: Lipid peroxidation was evaluated by measuring the reaction products of MDA with thiobarbituric acid (TBA), which forms a colorimetric product proportional to the MDA present. The cells were placed in 10 cm diameter cell culture and the following day were treated as indicated. At the end of the treatment, the cells were scraped, and then the suspension was subjected to freezing/thawing cycles. Subsequently, 36 mM TBA dissolved in glacial acetic acid was added and the mixture heated for 60 min to 100 °C. The reaction was interrupted by placing the vials on ice for 10 min, and a spectrophotometric reading was carried out at 532 nm.

[5] = system: cleaved caspase 3 in SH-SY5Y cells; assay: Cleaved caspase-3 expression, Western blotting; assay type: cell-based, Human; conditions: mixtures 24 h; Aβ peptide vs untreated cells
Protocol: The total lysates of SH-SY5Y cells were obtained from 6-multiwells. Lysates were taken after the cells were exposed to a preheated lysis buffer (80 °C) containing 50 mM of Tris-HCl (pH 6.8), 2% of SDS, and a protease inhibitor mixture and immediately boiled for 2 min. The protein concentration was determined using a DCA protein assay. After the addition of 0.05% bromophenol blue, 10% glycerol, and 2% β-mercaptoethanol, the samples were boiled again and loaded onto 12% SDS-polyacrylamide gels. Following electrophoresis, the polypeptides were transferred to nitrocellulose filters and blocked with TTBS/milk (TBS 1%, Tween 20, and nonfat dry milk 5%), and then the antibodies were used to reveal the respective antigens. Primary antibodies were incubated overnight at 4 °C, and, after washing, the filters were exposed to horseradish peroxidase-conjugated secondary antibody for 1 h at room temperature. The blots were developed using the chemiluminescence procedure. Experiments of immunoblot analysis were carried out in two ways: (a) electrophoresis of proteins obtained from cell extracts, as described; and (b) electrophoresis of proteins obtained by the formation of mixtures in the test tubes (in the absence of cells). […]

SH-SY5Y cells [6] = assay: Intracellular ROS (H2DCF-DA, cytofluorimetric analysis); assay type: cell-based, Human; conditions: Aβ peptide
Protocol: Human neuroblastoma SH-SY5Y cell line is the most widely used model to reproduce in vitro AD [37]. This cell line was acquired from the American Type Culture Collection (20099 Sesto San Giovanni, Milan, Italy) and maintained in culture in Dulbecco Modified’s Eagle’s Medium (DMEM) (supplemented with 100 U/mL penicillin, 100 µg/mL streptomycin, and 10% thermally inactivated bovine fetal serum). The cells were appropriately differentiated: a treatment with trans retinoid acid 10 µM for 5 days was chosen (Sigma Aldrich, 20151 Milan, Italy). The medium was changed every 2–3 days, and when the cell line reached about 50% confluence, it was supplemented with the mixtures (MIX 0, 1, 2, 3, 4, 5, 6, 7) for a further 24 h. At the end of the treatment, all appropriate tests were performed.
The probe used to measure intracellular reactive oxygen species (ROS) is the molecule H2DCF-DA [39]. In fact, after its simple diffusion in cells, H2DCF-DA is cleaved by cellular esterases, which are responsible for the loss of an acetate group, transforming it into H2DCF. This compound can no longer leave the cell and binds the ROS to the highly fluorescent compound DCF. In this way, the quantification of DCF provides the content of cellular ROS. […] The fluorescence was evaluated by cytometric analysis (FACS Accury, Becton Dickinson, Milan, Italy). […]

Sequence of mouse BACE-1 (P56818 46-501): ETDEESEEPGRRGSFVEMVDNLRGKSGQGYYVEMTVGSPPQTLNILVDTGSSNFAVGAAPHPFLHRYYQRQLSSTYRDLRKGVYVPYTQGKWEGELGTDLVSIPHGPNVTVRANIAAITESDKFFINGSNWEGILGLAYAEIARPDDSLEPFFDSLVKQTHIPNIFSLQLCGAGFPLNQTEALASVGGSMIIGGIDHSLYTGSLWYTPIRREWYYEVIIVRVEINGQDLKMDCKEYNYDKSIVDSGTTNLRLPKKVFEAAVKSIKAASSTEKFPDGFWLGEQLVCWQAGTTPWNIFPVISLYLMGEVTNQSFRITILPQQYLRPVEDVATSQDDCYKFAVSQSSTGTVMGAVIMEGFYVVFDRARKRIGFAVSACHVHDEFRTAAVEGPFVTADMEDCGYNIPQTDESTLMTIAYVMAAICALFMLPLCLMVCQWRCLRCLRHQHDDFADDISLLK

Molecule	IC50 (mouse BACE-1)	inhibition type determined for BuChE [1]	IC50 [1]	mechanism of inhibition on AChE [2]	IC50 [2]	interference with fibril formation (Aβ 1–40 peptide)	IC50 (Aβ 1–40 peptide)	reduction in cell vitality (SH-SY5Y cells [3]; 48 and 72 h, at the concentrations considered (0.1–100 μM))	cell viability (SH-SY5Y cells [3]; Aβ peptide 0.1 μM)	cell viability (SH-SY5Y cells [3]; Aβ peptide 1, 10 and 100 μM)	malondialdehyde accumulation (SH-SY5Y cells [4]; 48 and 72 h)	malondialdehyde accumulation (SH-SY5Y cells [4]; after 24 h)	expression of the cleaved form of caspase 3 [5]	ROS in the cells (SH-SY5Y cells [6]; after 48 and 72 h)	ROS in the cells (SH-SY5Y cells [6]; after 24 h)
COc1cc(CCOC(=O)C2CCN(Cc3ccccc3)CC2)ccc1OC(C)=O [HT3a]	19.7 ± 0.7 µM	noncompetitive	4.3 ± 0.9 µM	uncompetitive	2.6 ± 0.2 µM	did not interfere with fibril formation	–	–	–	–	–	–	–	–	–
O=C(OCCc1cc(O)c(O)cc1[N+](=O)[O-])C1CCN(Cc2ccccc2)CC1 [HT2]	128 ± 42 µM	mixed	31.8 ± 5.7 µM	noncompetitive	3.8 ± 0.3 µM	–	418 ± 41.1 µM	–	–	–	–	–	–	–	–
COc1cc(CCOC(=O)C2CCN(Cc3ccccc3)CC2)ccc1O [HT3]	76.8 ± 3 µM	mixed	7.2 ± 0.9 µM	uncompetitive	4 ± 0.4 µM	did not interfere with fibril formation	–	–	–	–	–	–	–	–	–
O=C(OCCc1ccc(O)c(O)c1)C1CCN(Cc2ccccc2)CC1 [HT1]	11.3 ± 1.2 µM	mixed	20.3 ± 2.4 µM	uncompetitive	6.5 ± 0.8 µM	–	375 ± 143 µM	–	–	–	–	–	–	–	–
CC(=O)Oc1ccc(CCOC(=O)C2CCN(Cc3ccccc3)CC2)cc1 [HT4a]	115 ± 5.1 µM	mixed	4.1 ± 0.5 µM	uncompetitive	2.9 ± 0.2 µM	did not interfere with fibril formation	–	–	–	–	–	–	–	–	–
O=C(OCCc1ccc(O)cc1)C1CCN(Cc2ccccc2)CC1 [HT4]	52.2 ± 2.1 µM	noncompetitive	22.9 ± 7.1 µM	uncompetitive	4.9 ± 0.5 µM	did not interfere with fibril formation	–	–	–	–	–	–	–	–	–
CC(=O)Oc1ccc(CCOC(=O)C2CCN(Cc3ccccc3)CC2)cc1OC(C)=O [HT1a]	16.9 ± 0.1 µM	mixed	4.2 ± 0.4 µM	mixed	4.3 ± 0.7 µM	–	106 ± 11.1 µM	–	–	–	–	–	–	–	–
Aβ peptide: Human β-amyloid peptide (1–40, cat. ab120479) from Abcam	–	–	–	–	–	–	–	more than 20%	ineffective	gradual and increasing reduction in cell viability	increasing accumulation of malondialdehyde	absent	increased expression of caspase 3	no longer detectable	significant increase in ROS
